Measured values reported in ChEMBL document CHEMBL1136258, “Design, synthesis and antifungal activity of a novel water soluble prodrug of antifungal triazole” (Bioorg Med Chem Lett, 2003).
Values joined by “and” are separate entries in the source; they are usually repeats but may differ in a detail not shown here. Identical values can stand only once. Each block holds one molecule with its values, some of them ahead of it.

Columns and labels:
[1] = Solubility in water; type: physicochemical
Rattus norvegicus [2] = experiment: Efficacy against Candida albicans CY3003 on day 14th after peroral administration in rat; type: functional; settings: po
[3] = Half life in monkey plasma; type: ADME, cell-free; settings: cercopithecidae
Rattus norvegicus [4] = organism: Rattus norvegicus; experiment: Half life in rat plasma; Not detected; type: ADME
Rattus norvegicus [5] = experiment: Efficacy against […] CF924390 on day 14th after intravenous administration in rat; type: functional
[6] = Half life in monkey plasma; Not detected; type: ADME, cell-free; settings: cercopithecidae
Rattus norvegicus [7] = experiment: Efficacy against […] CY1003 on day 14th after peroral administration in rat; type: functional; settings: po
Rattus norvegicus [8] = experiment: Efficacy against Candida albicans CY3003 on day 14th after intravenous administration in rat; type: functional
Rattus norvegicus [9] = experiment: Efficacy against Candida tropicalis CY5042 on day 14th after peroral administration in rat; type: functional; settings: po
[10] = Half life in human plasma; Not detected; type: ADME, cell-free
Rattus norvegicus [11] = experiment: Efficacy against Candida tropicalis CY5042 on day 14th after intravenous administration in rat; type: functional
Rattus norvegicus [12] = experiment: Efficacy against […] CF924390 on day 14th after peroral administration in rat; type: functional
[13] = (§1) Half life in rat plasma; type: ADME; settings: plasma
Rattus norvegicus [14] = experiment: Efficacy against […] CY1003 on day 14th after intravenous administration in rat; type: functional
[15] = Half life in human plasma; type: ADME, cell-free
Rattus norvegicus [16] = experiment: Efficacy against Candida albicans CY1002 on day 14th after intravenous administration in rat; type: functional
Rattus norvegicus [17] = experiment: Efficacy against Candida albicans CY1002 on day 14th after peroral administration in rat; type: functional; settings: po
Rattus norvegicus [18] = organism: Rattus norvegicus; experiment: as §1; type: ADME

SMILES: CNCC(=O)OCc1cccnc1N(C)C(=O)OC(C)[n+]1cnn(C[C@](O)(c2cc(F)ccc2F)[C@@H](C)c2nc(-c3ccc(C#N)cc3)cs2)c1.[Cl-] (stereo partly drawn)
ED50 (Rattus norvegicus [2]): 2.6 µmol/kg
solubility [1]: > 100 mg/mL
half-life [3]: < 1 min
T1/2 (Rattus norvegicus [4]): Not detected
ED50 (Rattus norvegicus [5]): 6.8 µM/kg
ED50 (Rattus norvegicus [5]; Rattus norvegicus, iv, read-out: ED50): 6 µmol/kg
T1/2 [6]: Not detected
ED50 (Rattus norvegicus [7]): 14 µmol/kg
ED50 (Rattus norvegicus [8]): 1.5 µmol/kg
ED50 (Rattus norvegicus [9]): 0.8 µmol/kg
T1/2 [10]: Not detected
ED50 (Rattus norvegicus [11]): 0.9 µmol/kg
ED50 (Rattus norvegicus [12]): 8.9 µM/kg
ED50 (Rattus norvegicus [12]; Rattus norvegicus, po, read-out: ED50): 9.9 µmol/kg
half-life [13]: < 1 min
ED50 (Rattus norvegicus [14]): 12 µmol/kg
half-life [15]: < 1 min
ED50 (Rattus norvegicus [16]): 4 µmol/kg
ED50 (Rattus norvegicus [17]): 4 µmol/kg

SMILES: CC(=O)OCc1ccccc1N(C)C(=O)OC[n+]1cnn(C[C@](O)(c2cc(F)ccc2F)[C@@H](C)c2nc(-c3ccc(C#N)cc3)cs2)c1.[Cl-]
solubility [1]: 1 mg/mL

SMILES: CC(=O)OCCCN(C)C(=O)OC[n+]1cnn(C[C@](O)(c2cc(F)ccc2F)[C@@H](C)c2nc(-c3ccc(C#N)cc3)cs2)c1.[I-]
solubility [1]: < 1 mg/mL

SMILES: C[C@@H](c1nc(-c2ccc(C#N)cc2)cs1)[C@](O)(Cn1c[n+](COC(=O)N(C)c2ccccc2)cn1)c1cc(F)ccc1F.[Cl-]
solubility [1]: < 1 mg/mL
half-life [13]: 1740 min

SMILES: CC(=O)OC[C@@H]1CCCN1C(=O)OC[n+]1cnn(C[C@](O)(c2cc(F)ccc2F)[C@@H](C)c2nc(-c3ccc(C#N)cc3)cs2)c1.[I-]
solubility [1]: < 1 mg/mL

SMILES: CC(=O)OCCN(C)C(=O)OC[n+]1cnn(C[C@](O)(c2cc(F)ccc2F)[C@@H](C)c2nc(-c3ccc(C#N)cc3)cs2)c1.[I-]
solubility [1]: < 1 mg/mL

SMILES: CNCC(=O)OCc1c(F)cccc1N(C)C(=O)OC(C)[n+]1cnn(C[C@](O)(c2cc(F)ccc2F)[C@@H](C)c2nc(-c3ccc(C#N)cc3)cs2)c1.[Cl-] (stereo partly drawn)
solubility [1]: > 10 mg/mL
T1/2 [3]: 3 min
half-life [3]: 2 min
half-life [13]: < 2 min
T1/2 (Rattus norvegicus [18]): 3 min
half-life [15]: 2 min

SMILES: CCC(C)n1ncn(-c2ccc(N3CCN(c4ccc(OCC5COC(Cn6cncn6)(c6ccc(Cl)cc6Cl)O5)cc4)CC3)cc2)c1=O (stereo not drawn) [ITRACONAZOLE]
ED50 (Rattus norvegicus [2]): 1.7 µmol/kg
ED50 (Rattus norvegicus [7]): 8.9 µmol/kg
ED50 (Rattus norvegicus [9]): 1.7 µmol/kg
ED50 (Rattus norvegicus [12]): 7.2 µM/kg and 2.5 µM/kg
ED50 (Rattus norvegicus [17]): 4.7 µmol/kg

The remaining lines, values ahead:

solubility [1]: > 10 mg/mL
SMILES: CNCC(=O)OCc1cc(F)ccc1N(C)C(=O)OC(C)[n+]1cnn(C[C@](O)(c2cc(F)ccc2F)[C@@H](C)c2nc(-c3ccc(C#N)cc3)cs2)c1.[Cl-] (stereo partly drawn)

solubility [1]: > 10 mg/mL
half-life [3]: 6 min
T1/2 (Rattus norvegicus [18]): < 2 min and 5 min
T1/2 [15]: 8 min
half-life [15]: 6 min
SMILES: CNCC(=O)OCc1cc(F)c(F)cc1N(C)C(=O)OC(C)[n+]1cnn(C[C@](O)(c2cc(F)ccc2F)[C@@H](C)c2nc(-c3ccc(C#N)cc3)cs2)c1.[Cl-] (stereo partly drawn)

solubility [1]: > 10 mg/mL
T1/2 [3]: 2 min and 5 min
half-life [13]: < 2 min
T1/2 (Rattus norvegicus [18]): 4 min
T1/2 [15]: 4 min
half-life [15]: 3 min
SMILES: CNCC(=O)OCc1ccc(Cl)cc1N(C)C(=O)OC(C)[n+]1cnn(C[C@](O)(c2cc(F)ccc2F)[C@@H](C)c2nc(-c3ccc(C#N)cc3)cs2)c1.[Cl-] (stereo partly drawn)
